Assay results from PubChem BioAssay AID1963958 (Molecular Pharmacology Branch, DTP, NCI, 2024).

Tested on: MDA-MB-231 multicell spheroids, viability
Assay: Anticancer human tumor MDA-MB-231 cell line growth inhibition [PI3K];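 also: spheroids exposed to agents for seven days before reading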;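 as to viability, T/C: percent of vehicle control luminescence with DMSO treated spheroids as 100%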
Conditions: for viability, T/C: stronger effect = lower value; active = viability on the fitted dose curve at most 10% of control; inactive = the rest
From the text: Combinatorial screen of targeted agents with the PI3K inhibitors inavolisib, alpelisib, duvelisib, and copanlisib in multi-cell type tumor spheroids
A high-throughput screen of multi-cell type tumor spheroids was designed to identify active combinations of targeted small molecules and PI3K pathway inhibitors. Complex spheroids include a stromal component modeled by human endothelial cells (HUVEC) and fibroblasts modeled by human mesenchymal stem cells (MSCs). The concentration ranges selected for each drug and investigational agent were based upon clinically achievable concentrations if the clinical Cmax of the agent was known.
Compounds. The drugs and investigational agents: inavolisib (NSC800729), alpelisib (NSC765974), duvelisib (NSC772469), copanlisib (NSC816437), ipatasertib (NSC767898), afuresertib (NSC778305), talazoparib (NSC767125), sapanisertib (NSC764658), selumetinib (NSC741078), tovorafenib (DAY101, NSC766906), vemurafenib (NSC761431), ravoxertinib (NSC781343), sotorasib (NSC818433), MRTX1133 (NSC 836407), abemaciclib (NSC 768073), palbociclib (NSC758247), venetoclax (NSC 766270), SY5609 (NSC837396), enzalutamide (NSC755605), and darolutamide (NSC825331), were obtained from the National Cancer Institute (NCI) Developmental Therapeutics Program Chemical Repository. The FDA-approved anticancer drug set is available from the NCI Developmental Therapeutics Program. […] The stock solutions were prepared in dimethyl sulfoxide (DMSO, Sigma-Aldrich, St. Louis, MO, cat. D2650) at 800-fold the tested concentration and stored at -70 degrees C prior to their use. All drugs and investigational agents were tested over a range starting from a high concentration at or near the clinical Cmax and decreasing in half-log increments. If the clinical Cmax for an agent had not been determined, the highest concentration tested was 10 microM.
Cell Culture. All cells were maintained in an incubator at 37 degrees C and 5% CO2 with 95% humidity. The PDC lines were cultured according to standard operating procedures established by the NCI PDMR (https://pdmr.cancer.gov/sops/default.htm). All PDCs were thawed and cultured in Matrigel-coated flasks prepared with a working solution of 1X Ham's F-12 nutrient mix, without supplementation (Invitrogen, Waltham, MA, cat. 11765054), 100 U/mL penicillin-streptomycin (Invitrogen, cat. 15140122), and 2.5% Matrigel (Corning Inc., Corning, NY, cat. 354248) for the first three passages. The 354836-022-R-J1-PDC, 475296-252-R-J1-PDC, and 997726-040-R-J2-PDC lines were cultured in 6A media, which includes advanced DMEM/F-12 (Thermo Fisher Scientific, cat. 12634028), 10 mM HEPES (Thermo Fisher Scientific, cat. 15630080), 1X GlutaMAX supplement (Thermo Fisher Scientific, cat. 35050061), 0.1 mg/mL primocin (InvivoGen, San Diego, CA, cat. ant-pm-2), 10% defined fetal bovine serum, heat inactivated (HyClone Laboratories Inc., Logan, UT, cat. SH30070.03HI), 50% L-WRN conditioned media (ATCC, cat. CRL-3276), 1.25 mM N-Acetyl-L-cysteine (Sigma-Aldrich, cat. A9165), 10 mM nicotinamide (Sigma-Aldrich, cat. N0636), 1X B-27 supplement (Thermo Fisher Scientific, cat. 17504044), 1X N-2 supplement (Thermo Fisher Scientific, cat. 17502048), and 10 microM Y-27632 dihydrochloride (Tocris Bioscience, Bristol, United Kingdom, cat. 1254). The 624824-186-R-J2-PDC line was cultured in 6C/Colon 1B media, which includes all 6A media components plus 50 ng/mL human EGF recombinant protein (Thermo Fisher Scientific, cat. PHG0311). […]

[1] = curve of first compound, second compound 0.00316 µM
[2] = curve of first compound, second compound 0.01 µM
[3] = curve of first compound, second compound 0.0316 µM
[4] = curve of first compound, second compound 0.1 µM
[5] = curve of first compound, second compound 0.316 µM
[6] = curve of first compound, second compound 1 µM

C#Cc1c(F)ccc2cc(O)cc(-c3ncc4c(N5CC6CCC(C5)N6)nc(OCC56CCCN5CC(F)C6)nc4c3F)c12 (configuration not stated)
inactive: viability, T/C (compound 0.0316 µM) 110% [middle of 4 runs] | viability, T/C (compound 0.1 µM) 104% [middle of 4 runs] | viability, T/C (compound 0.316 µM) 100% [middle of 4 runs] | viability, T/C (compound 1 µM) 98.5% [middle of 4 runs] | viability, T/C (compound 10 µM) 59.5% [middle of 4 runs]
> 10000 nM: IC50 (curve of compound)

Cn1ncc(Cl)c1-c1cc(C(=O)NC(CN)Cc2cccc(F)c2)sc1Cl (configuration not stated)
3.47 µM [middle of 4 runs]: IC50 (curve of compound)
inactive: viability, T/C (compound 0.0316 µM) 111% [middle of 4 runs] | viability, T/C (compound 0.1 µM) 99.8% [middle of 4 runs] | viability, T/C (compound 0.316 µM) 95.8% [middle of 4 runs] | viability, T/C (compound 1 µM) 77.2% [middle of 4 runs] | viability, T/C (compound 3.16 µM) 52.5% [middle of 4 runs] | viability, T/C (compound 10 µM) 28.8% [middle of 4 runs]

CNC(=O)c1ccc(N2C(=S)N(c3ccc(C#N)c(C(F)(F)F)c3)C(=O)C2(C)C)cc1F + CC(Nc1ccc2c(c1)OCCn1cc(N3C(=O)OCC3C(F)F)nc1-2)C(N)=O
> 10000 nM: IC50 [1] | IC50 [2] | IC50 [3] | IC50 [4] | IC50 [5] | IC50 [6]
inactive: viability, T/C (second compound 0.00316 µM, first compound 0.0316 µM) 104% | viability, T/C (second compound 0.00316 µM, first compound 0.1 µM) 97.8% | viability, T/C (second compound 0.00316 µM, first compound 0.316 µM) 103% | viability, T/C (second compound 0.00316 µM, first compound 1 µM) 98% | viability, T/C (second compound 0.00316 µM, first compound 3.16 µM) 103% | viability, T/C (second compound 0.00316 µM, first compound 10 µM) 76.6% | viability, T/C (second compound 0.01 µM, first compound 0.0316 µM) 87.4% | viability, T/C (second compound 0.01 µM, first compound 0.1 µM) 98% | viability, T/C (second compound 0.01 µM, first compound 0.316 µM) 86.6% | viability, T/C (second compound 0.01 µM, first compound 1 µM) 96% | viability, T/C (second compound 0.01 µM, first compound 3.16 µM) 79.5% | viability, T/C (second compound 0.01 µM, first compound 10 µM) 73% | viability, T/C (second compound 0.0316 µM, first compound 0.0316 µM) 75.6% | viability, T/C (second compound 0.0316 µM, first compound 0.1 µM) 82.5% | viability, T/C (second compound 0.0316 µM, first compound 0.316 µM) 75% | viability, T/C (second compound 0.0316 µM, first compound 1 µM) 77.5% | viability, T/C (second compound 0.0316 µM, first compound 3.16 µM) 77.2% | viability, T/C (second compound 0.0316 µM, first compound 10 µM) 60.8% | viability, T/C (second compound 0.1 µM, first compound 0.0316 µM) 72.8% | viability, T/C (second compound 0.1 µM, first compound 0.1 µM) 71.8% | viability, T/C (second compound 0.1 µM, first compound 0.316 µM) 70.7% | viability, T/C (second compound 0.1 µM, first compound 1 µM) 67.2% | viability, T/C (second compound 0.1 µM, first compound 3.16 µM) 64% | viability, T/C (second compound 0.1 µM, first compound 10 µM) 52.5% | viability, T/C (second compound 0.316 µM, first compound 0.0316 µM) 65.1% | viability, T/C (second compound 0.316 µM, first compound 0.1 µM) 66.2% | viability, T/C (second compound 0.316 µM, first compound 0.316 µM) 62.2% | viability, T/C (second compound 0.316 µM, first compound 1 µM) 66.7% | viability, T/C (second compound 0.316 µM, first compound 3.16 µM) 64.7% | viability, T/C (second compound 0.316 µM, first compound 10 µM) 52.2% | viability, T/C (second compound 1 µM, first compound 0.0316 µM) 55.7% | viability, T/C (second compound 1 µM, first compound 0.1 µM) 62.4% | viability, T/C (second compound 1 µM, first compound 0.316 µM) 62.3% | viability, T/C (second compound 1 µM, first compound 1 µM) 60.4% | viability, T/C (second compound 1 µM, first compound 3.16 µM) 58.5% | viability, T/C (second compound 1 µM, first compound 10 µM) 47.4%

Cn1cnc2c(F)c(Nc3ccc(Br)cc3Cl)c(C(=O)NOCCO)cc21 + CC(Nc1ccc2c(c1)OCCn1cc(N3C(=O)OCC3C(F)F)nc1-2)C(N)=O
< 9.49 nM: IC50 [4] | IC50 [5] | IC50 [6]
1100 nM: IC50 [2]
674 nM: IC50 [1]
34.1 nM: IC50 [3]
inactive: viability, T/C (second compound 0.00316 µM, first compound 0.00949 µM) 67.7% | viability, T/C (second compound 0.00316 µM, first compound 0.03 µM) 60% | viability, T/C (second compound 0.00316 µM, first compound 0.0949 µM) 58.2% | viability, T/C (second compound 0.00316 µM, first compound 0.3 µM) 56.2% | viability, T/C (second compound 0.00316 µM, first compound 0.949 µM) 49.4% | viability, T/C (second compound 0.00316 µM, first compound 3 µM) 32% | viability, T/C (second compound 0.01 µM, first compound 0.00949 µM) 56.8% | viability, T/C (second compound 0.01 µM, first compound 0.03 µM) 56.2% | viability, T/C (second compound 0.01 µM, first compound 0.0949 µM) 54.3% | viability, T/C (second compound 0.01 µM, first compound 0.3 µM) 53.9% | viability, T/C (second compound 0.01 µM, first compound 0.949 µM) 53% | viability, T/C (second compound 0.01 µM, first compound 3 µM) 30.8% | viability, T/C (second compound 0.0316 µM, first compound 0.00949 µM) 56.1% | viability, T/C (second compound 0.0316 µM, first compound 0.03 µM) 48.1% | viability, T/C (second compound 0.0316 µM, first compound 0.0949 µM) 46.1% | viability, T/C (second compound 0.0316 µM, first compound 0.3 µM) 44.8% | viability, T/C (second compound 0.0316 µM, first compound 0.949 µM) 43.2% | viability, T/C (second compound 0.0316 µM, first compound 3 µM) 23% | viability, T/C (second compound 0.1 µM, first compound 0.00949 µM) 50.9% | viability, T/C (second compound 0.1 µM, first compound 0.03 µM) 41.7% | viability, T/C (second compound 0.1 µM, first compound 0.0949 µM) 44% | viability, T/C (second compound 0.1 µM, first compound 0.3 µM) 42.1% | viability, T/C (second compound 0.1 µM, first compound 0.949 µM) 36.3% | viability, T/C (second compound 0.1 µM, first compound 3 µM) 16.7% | viability, T/C (second compound 0.316 µM, first compound 0.00949 µM) 42.5% | viability, T/C (second compound 0.316 µM, first compound 0.03 µM) 42% | viability, T/C (second compound 0.316 µM, first compound 0.0949 µM) 40.5% | viability, T/C (second compound 0.316 µM, first compound 0.3 µM) 39.8% | viability, T/C (second compound 0.316 µM, first compound 0.949 µM) 33.4% | viability, T/C (second compound 0.316 µM, first compound 3 µM) 15.4% | viability, T/C (second compound 1 µM, first compound 0.00949 µM) 41.1% | viability, T/C (second compound 1 µM, first compound 0.03 µM) 35.1% | viability, T/C (second compound 1 µM, first compound 0.0949 µM) 38.4% | viability, T/C (second compound 1 µM, first compound 0.3 µM) 37.7% | viability, T/C (second compound 1 µM, first compound 0.949 µM) 33.9% | viability, T/C (second compound 1 µM, first compound 3 µM) 15.3%
